≈ marks a conversion by molar mass, not a printed value. Where “and” joins values, the source holds several entries; their conditions need not be identical. Identical values can stand only once. One block for each compound: values may come before it.
How the values were obtained:
Assay in all cases: ≥ marks a high value that may be exact or a test limit, other limits are often not marked, values filed in µg/mL are converted to µM
[1] = tested on: Candida tropicalis ATCC 13803
Candida krusei ATCC 6258 = tested on: Candida krusei ATCC 6258
[2] = tested on: Candida parapsilosis ATCC 22019
[3] = tested on: Candida glabrata ATCC 15126
Candida albicans SC5314 = tested on: Candida albicans SC5314
[4] = tested on: Micrococcus luteus NBRC 12708
[5] = tested on: Staphylococcus aureus NBRC 12732
[6] = tested on: Escherichia coli NBRC 14237
[7] = tested on: Saccharomyces cerevisiae NBRC 10217
[8] = tested on: Enterococcus faecium mic80
[9] = tested on: Pseudomonas aeruginosa LES400
[10] = tested on: Pseudomonas aeruginosa H103
[11] = tested on: Staphylococcus aureus C623
[12] = tested on: Staphylococcus aureus ATCC 25923
[13] = tested on: Pseudomonas aeruginosa 213
[14] = tested on: Escherichia coli ESBL 63103
Candida albicans C627 = tested on: Candida albicans C627
[15] = tested on: Enterococcus faecalis ATCC 29212
[16] = tested on: Acinetobacter baumannii ATCC 19606
[17] = tested on: Staphylococcus epidermidis ATCC 35984
[18] = tested on: Pseudomonas aeruginosa ATCC 27853
[19] = tested on: Escherichia coli ATCC 25922
[20] = tested on: Klebsiella pneumoniae ATCC 700603
[21] = tested on: Enterococcus faecium ATCC 700221
[22] = tested on: Bacillus subtilis CMCC 63501
Escherichia coli UB1005 = tested on: Escherichia coli UB1005
[23] = tested on: Salmonella enterica subsp. enterica serovar Pullorum C79-13
[24] = tested on: Staphylococcus epidermidis ATCC 12228
[25] = tested on: Salmonella enterica subsp. enterica serovar Typhimurium ATCC 14028
[26] = tested on: Salmonella typhimurium ATCC 7731
[27] = tested on: Salmonella enterica subsp. enterica serovar Typhimurium C77-31
[28] = tested on: Pseudomonas aeruginosa PAO1
[29] = tested on: Staphylococcus aureus ATCC 29213

Compound: CC[C@H](C)[C@H](N)C(=O)N[C@@H](Cc1c[nH]c2ccccc12)C(=O)N[C@@H](CCCCN)C(=O)N[C@@H](CCCN=C(N)N)C(=O)N[C@@H](Cc1c[nH]c2ccccc12)C(=O)N[C@@H](Cc1c[nH]c2ccccc12)C(=O)N[C@@H](Cc1c[nH]c2ccccc12)C(=O)N[C@@H](CCCCN)C(=O)N[C@@H](CCCN=C(N)N)C(=O)O [IWKRWWWKR]
MIC [8]: ≥ 88.6 µM
MIC [9]: ≥ 88.6 µM
MIC [10]: ≥ 88.6 µM
MIC [11]: ≥ 44.3 µM
MIC [12]: 88.6 µM (≈ 128 µg/mL)
MIC [13]: ≥ 88.6 µM
MIC [14]: ≥ 44.3 µM
MIC (Candida albicans C627): 22.1 µM (≈ 32 µg/mL)

Compound: CC[C@H](C)[C@H](NC(=O)[C@H](CCCCN)NC(=O)[C@H](CCCCN)NC(=O)[C@H](Cc1ccccc1)NC(=O)[C@H](CC(C)C)NC(=O)[C@H](CCCCN)NC(=O)[C@H](Cc1c[nH]c2ccccc12)NC(=O)[C@@H](N)CCCCN)C(=O)O [KWKLFKKI]
MIC [22]: ≥ 64 µM
MIC [15]: > 64 µM and 128 µM
MIC (Escherichia coli UB1005): ≥ 128 µM
MIC [18]: > 64 µM and 128 µM
MIC [23]: ≥ 128 µM
MIC [19]: 64 µM and 128 µM
MIC [24]: > 64 µM and 128 µM
MIC [25]: > 64 µM and 128 µM
MIC [26]: ≥ 64 µM
MIC [27]: ≥ 128 µM
MIC [28]: > 64 µM
MIC [29]: > 64 µM and 128 µM

Further lines, results first:

MIC [1]: ≥ 44 µM
MIC (Candida krusei ATCC 6258): ≥ 44 µM
MIC [2]: ≥ 87.9 µM
MIC [3]: 22 µM (≈ 25 µg/mL)
MIC (Candida albicans SC5314): ≥ 87.9 µM
Compound: CC(C)C[C@H](NC(=O)[C@H](CC(C)C)NC(=O)[C@H](Cc1ccc(O)cc1)NC(=O)[C@H](CCCCN)NC(=O)[C@@H](N)CS)C(=O)N[C@@H](CCCN=C(N)N)C(=O)N[C@@H](Cc1c[nH]c2ccccc12)C(=O)N[C@@H](CCCN=C(N)N)C(=O)O [CKYLLRWR]

MIC [4]: 6.25 µM (≈ 11.9 µg/mL)
MIC [5]: 3.12 µM (≈ 5.93 µg/mL)
MIC [6]: 3.12 µM (≈ 5.93 µg/mL)
MIC [7]: 25 µM (≈ 47.5 µg/mL)
Compound: CC[C@H](C)[C@H](NC(=O)[C@H](CC(C)C)NC(=O)[C@@H]1CCCN1C(=O)[C@H](CC(C)C)NC(=O)[C@H](CCCCN)NC(=O)[C@H](CCCCN)NC(=O)[C@H](CC(C)C)NC(=O)[C@H](CC(C)C)NC(=O)[C@H](C)NC(=O)[C@@H](NC(=O)[C@H](Cc1ccccc1)NC(=O)CN)C(C)C)C(=O)N[C@@H](CC(C)C)C(=O)N[C@@H](CCCCN)C(=O)N[C@@H](Cc1cnc[nH]1)C(=O)N[C@@H](CC(C)C)C(=O)N1CCC[C@H]1C(N)=O [GFVALLKKLPLILKHLP]

MIC [15]: 294 µM (≈ 512 µg/mL)
MIC [16]: > 294 µM
MIC [12]: 294 µM (≈ 512 µg/mL)
MIC [17]: ≥ 73.6 µM
MIC [18]: > 294 µM
MIC [19]: 147 µM (≈ 256 µg/mL)
MIC [20]: > 294 µM
MIC [21]: ≥ 147 µM
Compound: CC(C)C[C@H](NC(=O)[C@H](Cc1cnc[nH]1)NC(=O)[C@H](Cc1ccc(O)cc1)NC(=O)[C@H](CCCN=C(N)N)NC(=O)[C@H](Cc1ccc(O)cc1)NC(=O)[C@H](CCCCN)NC(=O)[C@@H](N)CCCCN)C(=O)N[C@@H](CCCCN)C(=O)N1CCC[C@H]1C(=O)N[C@@H](Cc1ccccc1)C(=O)N[C@@H](CS)C(=O)N[C@@H](CCCCN)C(=O)N[C@@H](CCCCN)C(=O)O [KKYRYHLKPFCKK]

Source: DBAASP
